Experimental data taken from patent US10105357B2, “Indication of antibiotic drugs for preparation of cancer inhibition pharmaceutical composition” (LAUNX BIOMEDICAL CO., LTD., priority 2014, dated 2018).
Read-outs that look alike come from different tables or passages of the source.

What was measured:
cancer cell lines = assay: Cell viability analysis (WST-1) on cancer cell lines; format: cell-based, human; settings: drug 10 μM, 72 hours, WST-1; Table 3
[1] = system: HI650 (Lung Adenocarcinoma); assay: Cell viability analysis, lung cancer HI650; format: cell-based, human; settings: Homo sapiens, NCI-H1650, 72 h
[2] = system: A549 (Lung Adenocarcinoma); assay: Cell viability analysis, lung cancer A549; format: cell-based, human; settings: Homo sapiens, A549, 72 h
[3] = system: AGS (Gastric Adenocarcinoma); assay: Cell viability analysis, gastric cancer AGS; format: cell-based, human; settings: Homo sapiens, 72 h
[4] = system: MKN-45 (Gastric Adenocarcinoma); assay: Cell viability analysis, gastric cancer MKN-45; format: cell-based, human; settings: Homo sapiens, MKN-45, 72 h
[5] = system: HepG2 (Hepatocellular Carcinoma); assay: Cell viability analysis, hepatic cancer HepG2; format: cell-based, human; settings: Homo sapiens, HepG2, 72 h
[6] = system: Hep3B (hepatocellular carcinoma); assay: Cell viability analysis, hepatic cancer Hep3B; format: cell-based, human; settings: Homo sapiens, 72 h; Hep3B; repeated experiment; read-out: The results of antibiotic drug inhibiting cancer cell lines (cell viability analysis), Hep3B
[7] = system: LoVo (Colorectal Adenocarcinoma); assay: Cell viability analysis, colon cancer LoVo; format: cell-based, human; settings: Homo sapiens, LoVo, 72 h
[8] = system: A375 (Amelanotic Melanoma); assay: Cell viability analysis, skin cancer A375; format: cell-based, human; settings: Homo sapiens, A-375, 72 h
[9] = system: BCC (basal cell carcinoma); assay: Cell viability analysis, skin cancer BCC; format: cell-based, human; settings: Homo sapiens, 72 h; BCC; repeated experiment; read-out: The results of antibiotic drug inhibiting cancer cell lines (cell viability analysis), BCC
[10] = system: HeLa (Cervix Adenocarcinoma); assay: Cell viability analysis, cervical cancer HeLa; format: cell-based, human; settings: Homo sapiens, HeLa, 72 h, HeLa
[11] = system: C-33A (Cervical carcinoma); assay: Cell viability analysis, cervical cancer C-33A; format: cell-based, human; settings: Homo sapiens, 72 h; C-33A; repeated experiment; read-out: The results of antibiotic drug inhibiting cancer cell lines (cell viability analysis), C-33A
[12] = system: PC3 (p53−) (Prostate Adenocarcinoma); assay: Cell viability analysis, prostate cancer PC3; format: cell-based, human; settings: Homo sapiens, 72 h
T24 = assay: Cell viability analysis, bladder cancer T24; format: cell-based, human; settings: Homo sapiens, T-24, 72 h; T24; repeated experiment; read-out: The results of antibiotic drug inhibiting cancer cell lines (cell viability analysis), T24
[13] = system: MCF7 (Mammary Gland, Adenocarcinoma); assay: Cell viability analysis, breast cancer MCF7; format: cell-based, human; settings: Homo sapiens, MCF7, 72 h
[14] = system: MDA-MB-231 (Mammary Gland, Adenocarcinoma); assay: Cell viability analysis, breast cancer MDA-MB-231; format: cell-based, human; settings: Homo sapiens, MDA-MB-231, 72 h; MDA-MB231; repeated experiment; read-out: The results of antibiotic drug inhibiting cancer cell lines (cell viability analysis), MDA-MB231
BxPC-3 = assay: Cell viability analysis, pancreatic cancer BxPC-3; format: cell-based, human; settings: Homo sapiens, 72 h; BxPC-3; repeated experiment; read-out: The results of antibiotic drug inhibiting cancer cell lines (cell viability analysis), BxPC-3
AsPC-1 = assay: Cell viability analysis, pancreatic cancer AsPC-1; format: cell-based, human; settings: Homo sapiens, ASPC1, 72 h; AsPC-1; repeated experiment; read-out: The results of antibiotic drug inhibiting cancer cell lines (cell viability analysis), AsPC-1
NIH: OVCAR-3 = assay: Cell viability analysis, ovarian cancer NIH: OVCAR-3; format: cell-based, human; settings: Homo sapiens, 72 h; NIH-OVCAR-3; repeated experiment; read-out: The results of antibiotic drug inhibiting cancer cell lines (cell viability analysis), NIH-OVCAR-3
TOV-21G = assay: Cell viability analysis, ovarian cancer TOV-21G; format: cell-based, human; settings: Homo sapiens, TOV21G, 72 h; TOV-21G; repeated experiment; read-out: The results of antibiotic drug inhibiting cancer cell lines (cell viability analysis), TOV-21G
[15] = system: SAS (Tongue squamous cell carcinoma); assay: Cell viability analysis, tongue cancer SAS; format: cell-based, human; settings: Homo sapiens, 72 h; SAS; repeated experiment; read-out: The results of antibiotic drug inhibiting cancer cell lines (cell viability analysis), SAS
U-2OS = assay: Cell viability analysis, osteosarcoma U-2OS; format: cell-based, human; settings: Homo sapiens, 72 h; U2OS; repeated experiment; read-out: The results of antibiotic drug inhibiting cancer cell lines (cell viability analysis), U2OS
[16] = system: 786-O (Renal adenocarcinoma); assay: Cell viability analysis, renal cancer 786-O; format: cell-based, human; settings: Homo sapiens, 786-0, 72 h; 786-O; repeated experiment; read-out: The results of antibiotic drug inhibiting cancer cell lines (cell viability analysis), 786-O
[17] = system: HL-60 (Acute Promyelocytic Leukemia); assay: Cell viability analysis, leukemia HL-60; format: cell-based, human; settings: Homo sapiens, HL-60, 72 h, drug 10 μM, 72 hours, WST-1, OD450 nm; read-out: cell viability (survival rate), HL-60
[18] = system: HCT116 (p53+) (Colorectal Carcinoma)

In the case of `NC(=O)N/N=C/c1ccc([N+](=O)[O-])o1` [Nitrofurazone (Nitrofural), Nitrofurazone], the “inhibition effect on different cancer cell lines” value (cancer cell lines) is reported as “significant inhibition effect”, the viability at 10 µM ([1]; H1650, repeated experiment, read-out: The results of antibiotic drug inhibiting cancer cell lines (cell viability analysis), H1650) is reported as 67.3% and the viability at 10 µM ([1]; drug 10 μM, 72 hours, WST-1, OD450 nm, read-out: cell viability (survival rate), H1650) is reported as 61.1%. For the same molecule, the viability at 10 µM ([2]; A549, repeated experiment, read-out: The results of antibiotic drug inhibiting cancer cell lines (cell viability analysis), A549) was 114%, the viability at 10 µM ([2]; drug 10 μM, 72 hours, WST-1, OD450 nm, read-out: cell viability (survival rate), A549) was 44.3% and the viability at 10 µM ([3]; AGS, repeated experiment, read-out: The results of antibiotic drug inhibiting cancer cell lines (cell viability analysis), AGS) was 88.2%. For the same molecule, the viability at 10 µM ([3]; drug 10 μM, 72 hours, WST-1, OD450 nm, read-out: cell viability (survival rate), AGS) was 28%, the viability at 10 µM ([4]; MKN-45, repeated experiment, read-out: The results of antibiotic drug inhibiting cancer cell lines (cell viability analysis), MKN-45) was 86.8% and the viability at 10 µM ([4]; drug 10 μM, 72 hours, WST-1, OD450 nm, read-out: cell viability (survival rate), MKN-45) was 42%. For the same molecule, the viability at 10 µM ([5]; HepG2, repeated experiment, read-out: The results of antibiotic drug inhibiting cancer cell lines (cell viability analysis), HepG2) was 95.4%, the viability at 10 µM ([5]; drug 10 μM, 72 hours, WST-1, OD450 nm, read-out: cell viability (survival rate), HepG2) was 82.4% and the viability at 10 µM [6] was 95.3%. For the same molecule, the viability at 10 µM ([7]; read-out: The results of antibiotic drug inhibiting cancer cell lines (cell viability analysis), LoVo, repeated experiment) was 84.8%, the viability at 10 µM ([7]; read-out: cell viability (survival rate), LoVo, drug 10 μM, 72 hours, WST-1, OD450 nm) was 64.9% and the viability at 10 µM ([8]; A375, repeated experiment, read-out: The results of antibiotic drug inhibiting cancer cell lines (cell viability analysis), A375) was 94.7%. It also gave a viability at 10 µM ([8]; drug 10 μM, 72 hours, WST-1, OD450 nm, read-out: cell viability (survival rate), A375) of 54.9%, a viability at 10 µM [9] of 93% and a viability at 10 µM ([10]; repeated experiment, read-out: The results of antibiotic drug inhibiting cancer cell lines (cell viability analysis), HeLa) of 51.2%. The viability at 10 µM ([10]; drug 10 μM, 72 hours, WST-1, OD450 nm, read-out: cell viability (survival rate), HeLa) was 55.4%, the viability at 10 µM [11] was 83.2% and the viability at 10 µM ([12]; PC-3, repeated experiment, read-out: The results of antibiotic drug inhibiting cancer cell lines (cell viability analysis), PC-3) was 98.6%. For the same molecule, the viability at 10 µM ([12]; drug 10 μM, 72 hours, WST-1, OD450 nm, read-out: cell viability (survival rate), PC3) was 53.8%, the viability at 10 µM (T24) was 87.4% and the viability at 10 µM ([13]; MCF-7, repeated experiment, read-out: The results of antibiotic drug inhibiting cancer cell lines (cell viability analysis), MCF-7) was 107%. For the same molecule, the viability at 10 µM ([13]; drug 10 μM, 72 hours, WST-1, OD450 nm, read-out: cell viability (survival rate), MCF7) was 35.3%, the viability at 10 µM [14] was 84% and the viability at 10 µM (BxPC-3) was 71.6%. For the same molecule, the viability at 10 µM (AsPC-1) was 76.7%, the viability at 10 µM (NIH: OVCAR-3) was 99.5% and the viability at 10 µM (TOV-21G) was 95.7%. For the same molecule, the viability at 10 µM [15] was 92.3%, the viability at 10 µM (U-2OS) was 92.4% and the viability at 10 µM [16] was 90%. The viability at 10 µM [17] was 85.6% and the viability [18] was 110%.
